The assay in a line: Inhibition of ATG-Myc (unknown origin) expressed in CEF cells assessed as inhibition of microtumor formation.

For 15 compounds, IC50 results are on record in BindingDB's records for doi:10.1016/j.bmc.2018.07.019 (The Scripps Research Institute, 2018).

As for `COc1ccc(-c2cc(-c3ccc(C(N)=O)cc3)nc(-c3ccccc3)n2)cc1`, the IC50 was over 100 µM.

Consider `N#Cc1ccc(-c2cc(-c3ccc(C(N)=O)cc3)nc(-c3cc[n+]([O-])cc3)n2)cc1`, for which the half-maximal inhibitory concentration (IC50) was over 100 µM.

With `NC(=O)c1ccc(-c2cc(-c3ccc(-c4cnco4)cc3)nc(-c3ccco3)c2)cc1`, the IC50 amounted to 2.5 µM.

Consider `NC(=O)c1ccc(-c2cc(-c3ccc(-c4nccs4)cc3)nc(-c3ccco3)c2)cc1`, for which the IC50 was found to be 5 µM.

As for `Cn1ccnc1-c1cc(-c2ccc(C(N)=O)cc2)cc(-c2ccc(C#N)cc2)n1`, the IC50 is 40 µM.

Take `N#Cc1ccc(-c2cc(-c3ccc(C(N)=O)cc3)cc(-c3cncs3)n2)cc1`: the IC50 was 30 µM.

As for `N#Cc1ccc(-c2cc(-c3ccc(C(N)=O)cc3)nc(-c3ccco3)n2)cc1`, the half-inhibitory concentration (IC50) was 7 µM.

Take `N#Cc1ccc(-c2cc(-c3ccc(C(N)=O)cc3)cc(-c3cccc(F)c3)n2)cc1`: the IC50 was over 100 µM.

As to `N#Cc1ccc(-c2cc(-c3ccc(C(=O)NN)cc3)cc(-c3ccco3)n2)cc1`, the IC50 is over 100 µM.

Take `CS(=O)(=O)NC(=O)c1ccc(-c2cc(-c3ccc(C#N)cc3)nc(-c3ccco3)c2)cc1`: the IC50 is 10 µM.

For the compound `N#Cc1ccc(-c2cc(-c3ccc(-c4nnn[nH]4)cc3)cc(-c3ccco3)n2)cc1`, the IC50 was found to be 2 µM.

For `c1coc(-c2cc(-c3nccs3)cc(-c3ccc(-c4nccs4)cc3)n2)c1`, the IC50 was over 100 µM.

As to `N#Cc1ccc(-c2cc(-c3ccc(C(N)=O)cc3)cc(-c3cnco3)n2)cc1`, the IC50 was 5 µM.

As to `N#Cc1ccc(-c2cc(-c3ccc(C(N)=O)cc3)cc(-c3ccco3)n2)cc1`, the IC50 was determined as 3 µM.

For the compound `Cn1nncc1-c1cc(-c2ccc(C(N)=O)cc2)cc(-c2ccc(C#N)cc2)n1`, the IC50 is 40 µM.

Usually IC50 stands for the concentration that inhibits the measured activity by half.
